Experimental data reported in the supplement of paper PMC13207355.
Counter-ions that a name gives are not always drawn.

What was measured:
Details in all cases: exposure time: 72 h
[1] = tested on: E13 (patient-derived glioblastoma stem cells of classical subtype); test: surviving fraction (nuclei count normalised to DMSO); higher = more cells surviving (less toxic)
[2] = tested on: E21 (patient-derived glioblastoma stem cells of mesenchymal subtype); test: as above
[3] = tested on: E28 (patient-derived glioblastoma stem cells of classical subtype); test: as above
[4] = tested on: E31 (patient-derived glioblastoma stem cells of proneural subtype); test: as above
[5] = tested on: E34 (patient-derived glioblastoma stem cells of proneural subtype); test: as above
[6] = tested on: E57 (patient-derived glioblastoma stem cells of mesenchymal subtype); test: as above
[7] = tested on: FT3469 (normal neural stem cell line); test: as above
[8] = tested on: E13; test: phenotypic distance (Euclidean, principal components) from DMSO controls (arbitrary units); higher = stronger morphological change
[9] = tested on: E21; test: as above
[10] = tested on: E28; test: as above
[11] = tested on: E31; test: as above
[12] = tested on: E34; test: as above
[13] = tested on: E57; test: as above
[14] = tested on: FT3469; test: as above
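Throughout, for phenotypic distance (Euclidean, principal components) from DMSO controls: cell Painting imaging in 384-well plates, CellProfiler features reduced to at least 20 principal components, Euclidean distance versus same-plate DMSO vehicle wells (0.1% v/v), median over six images per well.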
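Throughout, for surviving fraction (nuclei count normalised to DMSO): nuclei counted by high-content imaging of Hoechst-stained cells in laminin-coated 384-well plates, relative to 0.1% DMSO vehicle wells, with staurosporine as cell-death control.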

CCC[C@@H]1C[C@@H](C(=O)N[C@@H]([C@H]2O[C@H](SC)[C@H](O)[C@@H](O)[C@H]2O)[C@@H](C)O)N(C)C1 [Lincomycin hydrochloride]
Details	phenotypic distance	surviving fraction
[1], 4.1 nM	–	0.937
[1], 12.3 nM	–	0.912
[1], 37 nM	–	0.891
[1], 111.1 nM	–	0.967
[1], 333.3 nM	–	1.07
[1], 1000 nM	–	1.1
[1], 3000 nM	–	0.894
[2], 4.1 nM	–	0.94
[2], 12.3 nM	–	0.873
[2], 37 nM	–	0.963
[2], 111.1 nM	–	0.936
[2], 333.3 nM	–	0.972
[2], 1000 nM	–	0.984
[2], 3000 nM	–	0.94
[3], 4.1 nM	–	1.05
[3], 12.3 nM	–	1.04
[3], 37 nM	–	1.08
[3], 111.1 nM	–	0.956
[3], 333.3 nM	–	1.12
[3], 1000 nM	–	1.12
[3], 3000 nM	–	1.03
[4], 4.1 nM	–	1.03
[4], 12.3 nM	–	0.994
[4], 37 nM	–	1.03
[4], 111.1 nM	–	1.15
[4], 333.3 nM	–	1.1
[4], 1000 nM	–	1.21
[4], 3000 nM	–	0.936
[5], 4.1 nM	–	0.988
[5], 12.3 nM	–	0.937
[5], 37 nM	–	0.909
[5], 111.1 nM	–	1.09
[5], 333.3 nM	–	1.11
[5], 1000 nM	–	1.25
[5], 3000 nM	–	0.902
[6], 4.1 nM	–	1.09
[6], 12.3 nM	–	1.08
[6], 37 nM	–	0.957
[6], 111.1 nM	–	1.07
[6], 333.3 nM	–	0.959
[6], 1000 nM	–	0.997
[6], 3000 nM	–	0.976
[7], 4.1 nM	–	0.948
[7], 12.3 nM	–	0.951
[7], 37 nM	–	0.828
[7], 111.1 nM	–	1.15
[7], 333.3 nM	–	1.1
[7], 1000 nM	–	1.08
[7], 3000 nM	–	1.08
[8], 4.1 nM	0.648	–
[8], 12.3 nM	0.534	–
[8], 37 nM	0.423	–
[8], 111.1 nM	0.641	–
[8], 333.3 nM	0.442	–
[8], 1000 nM	0.768	–
[8], 3000 nM	0.427	–
[9], 4.1 nM	0.423	–
[9], 12.3 nM	0.813	–
[9], 37 nM	0.629	–
[9], 111.1 nM	0.635	–
[9], 333.3 nM	0.696	–
[9], 1000 nM	0.667	–
[9], 3000 nM	0.478	–
[10], 4.1 nM	0.634	–
[10], 12.3 nM	0.929	–
[10], 37 nM	1.11	–
[10], 111.1 nM	0.703	–
[10], 333.3 nM	0.726	–
[10], 1000 nM	0.598	–
[10], 3000 nM	0.576	–
[11], 4.1 nM	0.488	–
[11], 12.3 nM	0.574	–
[11], 37 nM	0.621	–
[11], 111.1 nM	0.44	–
[11], 333.3 nM	0.659	–
[11], 1000 nM	0.74	–
[11], 3000 nM	0.788	–
[12], 4.1 nM	0.57	–
[12], 12.3 nM	0.706	–
[12], 37 nM	0.876	–
[12], 111.1 nM	1.02	–
[12], 333.3 nM	0.802	–
[12], 1000 nM	0.879	–
[12], 3000 nM	0.674	–
[13], 4.1 nM	0.854	–
[13], 12.3 nM	1.06	–
[13], 37 nM	0.755	–
[13], 111.1 nM	0.617	–
[13], 333.3 nM	0.478	–
[13], 1000 nM	0.463	–
[13], 3000 nM	0.394	–
[14], 4.1 nM	0.783	–
[14], 12.3 nM	0.977	–
[14], 37 nM	0.592	–
[14], 111.1 nM	0.704	–
[14], 333.3 nM	0.658	–
[14], 1000 nM	1.03	–
[14], 3000 nM	0.496	–

C[C@H]1Oc2cc(cnc2N)-c2c(nn(C)c2C#N)CN(C)C(=O)c2ccc(F)cc21 [Lorlatinib]
Details	phenotypic distance	surviving fraction
[1], 4.1 nM	–	1.03
[1], 12.3 nM	–	0.961
[1], 37 nM	–	1.08
[1], 111.1 nM	–	1.08
[1], 333.3 nM	–	1.11
[1], 1000 nM	–	1
[1], 3000 nM	–	1.01
[2], 4.1 nM	–	0.887
[2], 12.3 nM	–	0.918
[2], 37 nM	–	0.876
[2], 111.1 nM	–	0.918
[2], 333.3 nM	–	0.862
[2], 1000 nM	–	0.924
[2], 3000 nM	–	0.768
[3], 4.1 nM	–	1.11
[3], 12.3 nM	–	1.02
[3], 37 nM	–	1.05
[3], 111.1 nM	–	0.843
[3], 333.3 nM	–	0.913
[3], 1000 nM	–	1.07
[3], 3000 nM	–	0.911
[4], 4.1 nM	–	1.23
[4], 12.3 nM	–	0.867
[4], 37 nM	–	1.06
[4], 111.1 nM	–	0.986
[4], 333.3 nM	–	1.17
[4], 1000 nM	–	1.08
[4], 3000 nM	–	1.01
[5], 4.1 nM	–	1.02
[5], 12.3 nM	–	0.994
[5], 37 nM	–	0.939
[5], 111.1 nM	–	1.09
[5], 333.3 nM	–	0.999
[5], 1000 nM	–	1.1
[5], 3000 nM	–	0.792
[6], 4.1 nM	–	0.87
[6], 12.3 nM	–	0.808
[6], 37 nM	–	0.891
[6], 111.1 nM	–	0.816
[6], 333.3 nM	–	0.815
[6], 1000 nM	–	0.794
[6], 3000 nM	–	0.757
[7], 4.1 nM	–	0.89
[7], 12.3 nM	–	1.1
[7], 37 nM	–	0.999
[7], 111.1 nM	–	0.981
[7], 333.3 nM	–	1.03
[7], 1000 nM	–	1.06
[7], 3000 nM	–	0.834
[8], 4.1 nM	0.964	–
[8], 12.3 nM	0.749	–
[8], 37 nM	1.19	–
[8], 111.1 nM	0.958	–
[8], 333.3 nM	0.954	–
[8], 1000 nM	1.09	–
[8], 3000 nM	0.943	–
[9], 4.1 nM	0.926	–
[9], 12.3 nM	2.32	–
[9], 37 nM	1.09	–
[9], 111.1 nM	0.89	–
[9], 333.3 nM	1.37	–
[9], 1000 nM	1.41	–
[9], 3000 nM	1.96	–
[10], 4.1 nM	1.06	–
[10], 12.3 nM	0.784	–
[10], 37 nM	1.27	–
[10], 111.1 nM	1.47	–
[10], 333.3 nM	1.29	–
[10], 1000 nM	1.31	–
[10], 3000 nM	1.79	–
[11], 4.1 nM	0.873	–
[11], 12.3 nM	1.38	–
[11], 37 nM	2.47	–
[11], 111.1 nM	0.874	–
[11], 333.3 nM	1.08	–
[11], 1000 nM	1.32	–
[11], 3000 nM	1.4	–
[12], 4.1 nM	0.575	–
[12], 12.3 nM	0.814	–
[12], 37 nM	1.28	–
[12], 111.1 nM	0.761	–
[12], 333.3 nM	1.2	–
[12], 1000 nM	0.726	–
[12], 3000 nM	1.84	–
[13], 4.1 nM	2.11	–
[13], 12.3 nM	3.34	–
[13], 37 nM	2.79	–
[13], 111.1 nM	3.21	–
[13], 333.3 nM	2.46	–
[13], 1000 nM	2.74	–
[13], 3000 nM	2.66	–
[14], 4.1 nM	1.48	–
[14], 12.3 nM	0.861	–
[14], 37 nM	1.31	–
[14], 111.1 nM	0.981	–
[14], 333.3 nM	1.15	–
[14], 1000 nM	0.901	–
[14], 3000 nM	1.54	–
